Results reported in ChEMBL document CHEMBL1141835, “Sclerotigenin: A new antiinsectan benzodiazepine from the sclerotia of penicillium sclerotigenum” (1999).

Test system: Helicoverpa zea
Assay: Insecticidal activity against first instar larvae of Helicoverpa zea at 200 ppm administered with diet relative to control
Format: functional

For `O=C1NCc2nc3ccccc3c(=O)n2-c2ccccc21` [SCLEROTIGENIN], the Activity was 42%.
